In patent US7083969B2, “Serratia marcescens strain” (Korea Research Institute of Bioscience and Biotechnology, priority 1997, dated 2006):

Assays:
[1] = Weight ratio of the spleen to the body (toxicity); format: in vivo, mice
Procedure: (§1) A T cell-dependent immune response reaction was used to assess the influence of prodigiosin on T lymphocytes in vivo. Test animals were immunized with sheep red blood cells by peritoneal injection. 4 days after the immunization, the number of the antibody producing cells was counted. Prodigiosin was peritoneally injected everyday. Based on the number of the […] cells in the non-treated animals, the influence of prodigiosin on T lymphocytes in vivo was assessed as percentage. Also, the weight ratio of the spleen to the body was measured to assay the toxicity of prodigiosin to the animals. Cyclophosphamide was used as a positive control.

[2] = Body weight of injected mice in graft versus host experiment (toxicity); format: in vivo
Procedure: (§2) A graft versus host reaction was utilized for the in vivo assay of prodigiosin's immunosuppression. The graft versus host reaction enables an assessment of the immune response of T lymphocytes. On the sixth day after transplantation of the T lymphocytes of BDF1 mice different in histocompatibility antigen, the lymphatic nodes were measured for weight, thereby assessing the immune response of T lymphocyte to the grafted heteroantigens. The prodigiosin was peritoneally injected at a dose of 30–100 mg per kg of body weight for five days while cyclophosphamide, as a positive control, was peritoneally injected at a dose of 100 mg/kg for five days. The body weights of the injected mice were measured to compare the toxicity of prodigiosin with that of cyclophosphamide. […] As for the body weight, it was not changed in the mice injected with prodigiosin at an effective concentration.

[3] = tested on: T lymphocytes; assay: Graft versus host reaction in vivo (lymphatic node weight); set-up: species or system BDF1 mice; conditions: 100 mg/kg peritoneally for five days; sixth day after transplantation
Text: (§3) Germ-free test animals, mice BDF1 and B6C3F1, obtained from Genetic Resources Center, Korean Research Institute of Bioscience and Biotechnology in the Korean Institute of Science and Technology, were used for the assay of the immunosuppressive activity of prodigiosin. […] At such concentrations as show no cytotoxic effects, prodigiosin cannot suppress the immune response of B lymphocytes. […] This selective immunosuppression for T lymphocytes is not ascribed to the selective cytotoxicity for T lymphocytes. The same immunosuppression results as in the ex vivo experiments were obtained in in vivo experiments. When T lymphocyte activity was measured by use of a graft versus host reaction and a T cell-dependent antibody producing reaction, the prodigiosin suppressed the immune response, but exerted no toxicity on animals. Therefore, the immunosuppressive activity of the prodigiosin is thought to be attributed to the selective suppression for T lymphocyte activity.
as §2

[4] = tested on: T lymphocytes; assay: T cell-dependent immune response in vivo (antibody producing cells after sheep red blood cell immunization); set-up: species or system mice; conditions: 100 mg/kg; 4 days after immunization
Text: as §3, §1

[5] = tested on: CD8 T lymphocytes; conditions: known; cited from earlier work
[6] = tested on: T lymphocytes; conditions: known; cited from earlier work

O=P1(N(CCCl)CCCl)NCCCO1 (centres unmarked) [Cyclophosphamide, reference compound]
Wt. Ratio of spleen/body (%) ([1]; 100 mg/kg): 26% | toxicity judged by weight ratio of the spleen to the body ([1]; at effective concentrations): very toxic | Body weight ([2]; 100 mg/kg peritoneally for five days): 18 g | body weight change ([2]; at an effective concentration): loss of body weight | Wt. (mg) of Lymphatic node [3]: 0.06 mg | Immune Response (%) [4]: 7%

CCCCCCCCCCCc1ccc(/C=C2\N=C(c3ccc[nH]3)C=C2OC)[nH]1 [Prodigiosin 25-C, prodigiosin 25-C]
suppression of CD8 T lymphocytes [5]: suppressed | proliferation of T lymphocytes [6]: suppress
